Measured values from PubChem BioAssay AID292 (DTP/NCI, 2004).
“And” between values parts separate entries of the source, which are not always exact repeats. Identical values can stand only once. Toxic doses and inconclusive results are not listed.

Test system: B6C3F1 mice, ip Sarcoma M5076, median survival T/C
Experiment: NCI In Vivo Anticancer Drug Screen. Data for tumor model Sarcoma M5076 (intraperitoneal) in B6C3F1 mice
Conditions: endpoint: median survival time, higher = longer survival
How it was run: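 Transplantable tumour in mice; compound-treated vs vehicle-treated groups. Read-out: survival. Value = treated/control ratio.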

[1] = dose: 25.0 mg/kg/injection, schedule: Q04DX004 (ip), vehicle: water
[2] = dose: 50.0 mg/kg/injection, schedule: Q04DX004 (ip), vehicle: water
[3] = dose: 100.0 mg/kg/injection, schedule: Q04DX004 (ip), vehicle: water
[4] = dose: 100.0 mg/kg/injection, schedule: Q04DX004 (ip), vehicle: saline with Tween-80
[5] = dose: 200.0 mg/kg/injection, schedule: Q04DX004 (ip), vehicle: saline with Tween-80
[6] = dose: 400.0 mg/kg/injection, schedule: Q04DX004 (ip), vehicle: saline with Tween-80
[7] = dose: 125.0 mg/kg/injection, schedule: Q04DX004 (ip), vehicle: saline with Tween-80
[8] = dose: 25.0 mg/kg/injection, schedule: Q04DX004 (ip), vehicle: Klucel (hydroxypropylcellulose) (HPC)
[9] = dose: 25.0 mg/kg/injection, schedule: Q04DX004 (ip), vehicle: saline with Tween-80
[10] = dose: 50.0 mg/kg/injection, schedule: Q04DX004 (ip), vehicle: saline with Tween-80
[11] = dose: 37.5 mg/kg/injection, schedule: Q04DX004 (ip), vehicle: saline with Tween-80
[12] = dose: 75.0 mg/kg/injection, schedule: Q04DX004 (ip), vehicle: saline with Tween-80
[13] = dose: 150.0 mg/kg/injection, schedule: Q04DX004 (ip), vehicle: saline with Tween-80
[14] = dose: 50.0 mg/kg/injection, schedule: Q04DX004 (ip), vehicle: Klucel (hydroxypropylcellulose) (HPC)
[15] = dose: 100.0 mg/kg/injection, schedule: Q04DX004 (ip), vehicle: Klucel (hydroxypropylcellulose) (HPC)
[16] = dose: 200.0 mg/kg/injection, schedule: Q04DX004 (ip), vehicle: Klucel (hydroxypropylcellulose) (HPC)
[17] = dose: 400.0 mg/kg/injection, schedule: Q04DX004 (ip), vehicle: Klucel (hydroxypropylcellulose) (HPC)
[18] = dose: 144.0 mg/kg/injection, schedule: Q04DX004 (ip), vehicle: Klucel (hydroxypropylcellulose) (HPC)

Cc1c(O)c2ccccc2c2c1sc(NCCCN(CCO)CCO)[n+]2C
T/C (dose: 7.5 mg/kg/injection, schedule: Q04DX004 (ip), vehicle: saline): 93 % of control
T/C (dose: 15.0 mg/kg/injection, schedule: Q04DX004 (ip), vehicle: saline): 98 % of control
T/C (dose: 30.0 mg/kg/injection, schedule: Q04DX004 (ip), vehicle: saline): 94 % of control

Cn1cc(NC(=O)c2cc(NC(=O)c3cc(NC=O)cn3C)cn2C)cc1C(=O)NCCC(=N)N
T/C (dose: 12.5 mg/kg/injection, schedule: Q04DX004 (ip), vehicle: water): 108 % of control
T/C [1]: 102 % of control
T/C [2]: 105 % of control
T/C [3]: 99 % of control

O=c1[nH]c(=O)n(C2CC(O)C(CO)O2)cc1I (centres undefined)
T/C [4]: 103 % of control and 117 % of control
T/C [5]: 108 % of control and 118 % of control
T/C [6]: 122 % of control
T/C (dose: 800.0 mg/kg/injection, schedule: Q04DX004 (ip), vehicle: saline with Tween-80): 158 % of control
T/C (dose: 1600.0 mg/kg/injection, schedule: Q04DX004 (ip), vehicle: saline with Tween-80): 243 % of control

CC[C@@H](C)[C@H]([C@H](CC(=O)N1CCC[C@@H]1[C@@H](OC)[C@H](C)C(=O)N[C@H](Cc1ccccc1)c1nccs1)OC)N(C)C(=O)[C@H](NC(=O)[C@@H](C(C)C)N(C)C)C(C)C
T/C (dose: 8.0 micrograms/kg/injection, schedule: Q04DX004 (ip), vehicle: saline + alcohol): 153 % of control
T/C (dose: 36.0 micrograms/kg/injection, schedule: Q04DX004 (ip), vehicle: saline + alcohol): 153 % of control

O=S1(=O)C(c2ccccc2)=C(O)c2cc3ccccc3nc21
T/C (dose: 31.25 mg/kg/injection, schedule: Q04DX004 (ip), vehicle: saline with Tween-80): 97 % of control
T/C (dose: 62.5 mg/kg/injection, schedule: Q04DX004 (ip), vehicle: saline with Tween-80): 108 % of control
T/C [7]: 93 % of control
T/C (dose: 250.0 mg/kg/injection, schedule: Q04DX004 (ip), vehicle: saline with Tween-80): 102 % of control

NNC(=O)c1ccncc1
T/C (dose: 25.0 mg/kg/injection, schedule: Q04DX004 (ip), vehicle: saline): 102 % of control
T/C (dose: 50.0 mg/kg/injection, schedule: Q04DX004 (ip), vehicle: saline): 102 % of control
T/C (dose: 100.0 mg/kg/injection, schedule: Q04DX004 (ip), vehicle: saline): 95 % of control
T/C (dose: 200.0 mg/kg/injection, schedule: Q04DX004 (ip), vehicle: saline): 106 % of control

COc1c(C=O)c2c(c(OC)c1OC)-c1ccc(OC)c(=O)cc1[C@@H](NC(C)=O)CC2
T/C (dose: 3.75 mg/kg/injection, schedule: Q04DX004 (ip), vehicle: Klucel (hydroxypropylcellulose) (HPC)): 118 % of control
T/C (dose: 7.5 mg/kg/injection, schedule: Q04DX004 (ip), vehicle: Klucel (hydroxypropylcellulose) (HPC)): 118 % of control

Cc1nnc2nc(N)[nH]n2c1=O
T/C [1]: 97 % of control
T/C [2]: 104 % of control
T/C [3]: 96 % of control

CC1(C)C(=O)NC(=O)c2ccccc21
T/C [8]: 109 % of control

OC1(c2ccccc2)c2ccccc2NC2=NCCN21 (centres undefined)
T/C [9]: 95 % of control
T/C [10]: 96 % of control

O=C(Nc1cccc(O)c1)C(Cl)=C(Cl)Cl
T/C (dose: 6.25 mg/kg/injection, schedule: Q04DX004 (ip), vehicle: other): 96 % of control
T/C (dose: 12.5 mg/kg/injection, schedule: Q04DX004 (ip), vehicle: other): 95 % of control

COc1ccc2c(n1)Sc1nc3ccccc3nc1N2
T/C [11]: 92 % of control
T/C [12]: 98 % of control
T/C [13]: 87 % of control

COc1cc(C(CC(C)=O)c2cc3c(cc2OC(C)=O)OCO3)cc(OC)c1OC (centres undefined) (tested in a mixture with another compound)
T/C (dose: 27.0 mg/kg/injection, schedule: Q04DX004 (ip), vehicle: saline with Tween-80): 100 % of control
T/C (dose: 45.0 mg/kg/injection, schedule: Q04DX004 (ip), vehicle: saline with Tween-80): 101 % of control and 103 % of control
T/C [12]: 111 % of control and 119 % of control
T/C [7]: 119 % of control
T/C (dose: 208.3 mg/kg/injection, schedule: Q04DX004 (ip), vehicle: saline with Tween-80): 124 % of control

C/C(=C\c1ccccc1)C1C(C#N)C(=O)NC(=O)C1C#N (centres undefined)
T/C [14]: 100 % of control
T/C [15]: 113 % of control
T/C [16]: 106 % of control
T/C [17]: 106 % of control

C=CCOc1cc2c(cc1C(C)c1ccc(OC)cc1)OCO2 (centres undefined)
T/C [8]: 98 % of control
T/C [14]: 116 % of control
T/C (dose: 75.0 mg/kg/injection, schedule: Q04DX004 (ip), vehicle: Klucel (hydroxypropylcellulose) (HPC)): 113 % of control
T/C [15]: 115 % of control
T/C [18]: 118 % of control
T/C (dose: 150.0 mg/kg/injection, schedule: Q04DX004 (ip), vehicle: Klucel (hydroxypropylcellulose) (HPC)): 106 % of control
T/C [16]: 123 % of control
T/C (dose: 240.0 mg/kg/injection, schedule: Q04DX004 (ip), vehicle: Klucel (hydroxypropylcellulose) (HPC)): 108 % of control
T/C (dose: 300.0 mg/kg/injection, schedule: Q04DX004 (ip), vehicle: Klucel (hydroxypropylcellulose) (HPC)): 124 % of control
T/C [17]: 108 % of control

CS(=O)CCN=Cc1ccc(N=Nc2ccc(O)cc2)cc1 (centres undefined)
T/C (dose: 37.0 mg/kg/injection, schedule: Q04DX004 (ip), vehicle: saline with Tween-80): 109 % of control
T/C [12]: 90 % of control
T/C [13]: 87 % of control
T/C (dose: 600.0 mg/kg/injection, schedule: Q04DX004 (ip), vehicle: saline with Tween-80): 87 % of control

CC1(CO)C(O)CCC2(C)C1CCC1CC3CC12CCC3(O)CO (centres undefined)
T/C (dose: 51.8 mg/kg/injection, schedule: Q04DX005 (ip), vehicle: Klucel (hydroxypropylcellulose) (HPC)): 120 % of control
T/C (dose: 86.4 mg/kg/injection, schedule: Q04DX004 (ip), vehicle: Klucel (hydroxypropylcellulose) (HPC)): 120 % of control
T/C (dose: 86.4 mg/kg/injection, schedule: Q04DX005 (ip), vehicle: Klucel (hydroxypropylcellulose) (HPC)): 124 % of control
T/C [18]: 116 % of control
T/C (dose: 144.0 mg/kg/injection, schedule: Q04DX005 (ip), vehicle: Klucel (hydroxypropylcellulose) (HPC)): 123 % of control
T/C (dose: 240.0 mg/kg/injection, schedule: Q04DX005 (ip), vehicle: Klucel (hydroxypropylcellulose) (HPC)): 122 % of control
T/C [17]: 151 % of control and 164 % of control

N#CC1C(=O)NC(=O)C(C#N)C1CCc1ccccc1 (centres undefined)
T/C (dose: 50.0 mg/kg/injection, schedule: Q04DX004 (ip), vehicle: Klucel + Tween-80): 105 % of control
T/C (dose: 100.0 mg/kg/injection, schedule: Q04DX004 (ip), vehicle: Klucel + Tween-80): 97 % of control
T/C (dose: 200.0 mg/kg/injection, schedule: Q04DX004 (ip), vehicle: Klucel + Tween-80): 105 % of control

Cc1ccc(C)c(NC(=O)C2C(=O)C(=O)N(c3cc(C)ccc3C)C2=O)c1 (centres undefined)
T/C [14]: 102 % of control
T/C [15]: 100 % of control
T/C [16]: 108 % of control
T/C [17]: 105 % of control

COC(=O)c1ccc(OCc2nc3ccccc3[nH]2)cc1
T/C [9]: 95 % of control
T/C [10]: 100 % of control
T/C [4]: 95 % of control
T/C [5]: 89 % of control
T/C [6]: 90 % of control

S=c1sc(-c2ccc(Cl)cc2)nn1CSc1nc2ccccc2o1
T/C [11]: 86 % of control
T/C (dose: 300.0 mg/kg/injection, schedule: Q04DX004 (ip), vehicle: saline with Tween-80): 94 % of control

O=C1C(=O)C(CN2CCOCC2)=C(N2CCOCC2)C(N2CCOCC2)=C1CN1CCOCC1
T/C [9]: 96 % of control
T/C [10]: 101 % of control
T/C [4]: 94 % of control
T/C [5]: 88 % of control
T/C [6]: 92 % of control

[N-]=[N+]=NCCOCn1ccc(=O)[nH]c1=O
T/C (dose: 37.5 mg/kg/injection, schedule: Q04DX004 (ip), vehicle: suspension in saline): 102 % of control
T/C (dose: 75.0 mg/kg/injection, schedule: Q04DX004 (ip), vehicle: suspension in saline): 107 % of control
T/C (dose: 150.0 mg/kg/injection, schedule: Q04DX004 (ip), vehicle: suspension in saline): 109 % of control
T/C (dose: 300.0 mg/kg/injection, schedule: Q04DX004 (ip), vehicle: suspension in saline): 103 % of control
T/C (dose: 600.0 mg/kg/injection, schedule: Q04DX004 (ip), vehicle: suspension in saline): 98 % of control
